# Reference: ChEMBL document CHEMBL5696442, “Discovery of type II inhibitors of TGFβ-activated kinase 1 (TAK1) and mitogen-activated protein kinase kinase kinase kinase 2 (MAP4K2)” (J Med Chem, 2015)
# Calls of active or inactive are those of the source. The calls are words filed in the database; no cut-off is given here.
# Tests used:
# [1] = target: Putative phosphatidylinositol 4-kinase alpha-like protein P2 (Homo sapiens) (UniProt A4QPH2); assay: Inhibition of PI4KAP2 ATP labeling site in human Huh-7 cell lysate at 1 uM by KiNativ Profiling analysis relative to control; type: subcellular
# [2] = target: Protein kinase C beta type (Homo sapiens) (UniProt P05771); assay: Inhibition of PKCb Lys2 labeling site in human Huh-7 cells at 1 uM by KiNativ Profiling analysis relative to control; type: cell-based
# [3] = target: Serine/threonine-protein kinase PLK1 (Homo sapiens) (UniProt P53350); assay: Inhibition of PLK1 Lys1 labeling site harbouring EVFAGKIVPK in human Huh-7 cell lysate at 1 uM by KiNativ Profiling analysis relative to control; type: subcellular
# [4] = target: DNA-PK/Ku70/Ku85 (Homo sapiens) (UniProt P78527+P12956+P13010); assay: Inhibition of DNAPK ATP labeling site harbouring KGGSWIQEINVAEKNWYPR in human Huh-7 cell lysate at 1 uM by KiNativ Profiling analysis relative to control; type: subcellular
# [5] = target: T1, Serine/threonine-protein kinase Sgk3 (Homo sapiens) (UniProt Q96BR1); assay: Inhibition of SGK3 K1 labeling site in human Huh-7 cells at 1 uM by KiNativ Profiling analysis relative to control; type: cell-based
# T1 sequence (whole entry): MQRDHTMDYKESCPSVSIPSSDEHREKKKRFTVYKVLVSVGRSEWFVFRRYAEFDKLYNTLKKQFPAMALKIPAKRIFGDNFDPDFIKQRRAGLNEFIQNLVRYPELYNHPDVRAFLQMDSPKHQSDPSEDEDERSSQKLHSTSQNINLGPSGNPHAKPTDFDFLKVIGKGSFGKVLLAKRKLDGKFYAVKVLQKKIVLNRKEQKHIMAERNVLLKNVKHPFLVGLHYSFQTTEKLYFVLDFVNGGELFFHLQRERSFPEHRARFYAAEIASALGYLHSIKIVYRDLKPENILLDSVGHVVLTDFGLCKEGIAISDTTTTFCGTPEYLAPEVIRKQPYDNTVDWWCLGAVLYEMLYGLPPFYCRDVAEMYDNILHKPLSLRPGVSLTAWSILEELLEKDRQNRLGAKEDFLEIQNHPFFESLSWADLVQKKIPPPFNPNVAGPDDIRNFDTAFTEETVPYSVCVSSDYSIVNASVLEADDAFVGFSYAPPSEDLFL
# [6] = target: Cyclin-dependent kinase 8 (Homo sapiens) (UniProt P49336); assay: Inhibition of CDK8 (unknown origin) at 10 uM by Ambit Kinomescan binding assay relative to control; values are per cent of control
# [7] = target: Death-associated protein kinase 2 (Homo sapiens) (UniProt Q9UIK4); assay: Inhibition of DAPK2 (unknown origin) at 10 uM by Ambit Kinomescan binding assay
# [8] = target: Ribosomal protein S6 kinase alpha-2 (Homo sapiens) (UniProt Q15349); assay: Inhibition of C-terminal RPS6KA2 kinase domain 2 (unknown origin) at 10 uM by Ambit Kinomescan binding assay
# [9] = Inhibition of MLK1/4 K2 labeling site in human Huh-7 cells at 1 uM by KiNativ Profiling analysis relative to control; conditions: condition cancer
# [10] = target: Ephrin type-A receptor 3 (Homo sapiens) (UniProt P29320); assay: Inhibition of EPHA3 (unknown origin) at 10 uM by Ambit Kinomescan binding assay relative to control
# [11] = target: T2, Dual specificity mitogen-activated protein kinase kinase 4 (Homo sapiens) (UniProt P45985); assay: Inhibition of MAP2K4 Lys1 labeling site in human A-375 cells at 0.5 uM by KiNativ Profiling analysis relative to control; type: cell-based
# T2 sequence (whole entry): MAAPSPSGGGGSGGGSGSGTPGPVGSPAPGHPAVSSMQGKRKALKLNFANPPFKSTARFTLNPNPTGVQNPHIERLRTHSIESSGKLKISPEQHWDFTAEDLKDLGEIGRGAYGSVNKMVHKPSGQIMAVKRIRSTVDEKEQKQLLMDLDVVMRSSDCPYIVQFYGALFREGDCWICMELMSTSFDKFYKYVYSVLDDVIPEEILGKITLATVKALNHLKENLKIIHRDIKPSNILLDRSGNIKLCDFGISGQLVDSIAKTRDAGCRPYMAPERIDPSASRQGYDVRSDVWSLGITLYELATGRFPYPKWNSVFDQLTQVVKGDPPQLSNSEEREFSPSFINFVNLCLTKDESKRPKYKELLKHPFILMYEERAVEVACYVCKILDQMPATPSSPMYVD
# [12] = target: Fibroblast growth factor receptor 3 (Homo sapiens) (UniProt P22607); assay: Inhibition of FGFR3 (unknown origin) at 1 uM by Ambit Kinomescan binding assay relative to control; values are per cent of control
# [13] = tested on: Tyrosine-protein kinase ABL1 (Homo sapiens), P00519 [F317L]; assay: Inhibition of nonphosphorylated ABL1 F317L mutant (unknown origin) at 1 uM by Ambit Kinomescan binding assay relative to control
# [14] = target: RAC-gamma serine/threonine-protein kinase (Homo sapiens) (UniProt Q9Y243); assay: Inhibition of AKT3 (unknown origin) at 1 uM by Ambit Kinomescan binding assay relative to control
# [15] = target: STE20-like serine/threonine-protein kinase (Homo sapiens) (UniProt Q9H2G2); assay: Inhibition of SLK Lys1 labeling site in human A-375 cells at 0.5 uM by KiNativ Profiling analysis relative to control; type: cell-based
# [16] = target: T3, Mixed lineage kinase domain-like protein (Homo sapiens) (UniProt Q8NB16); assay: Inhibition of MLKL Lys1 labeling site in human A-375 cells at 5 uM by KiNativ Profiling analysis relative to control; type: cell-based
# T3 sequence (whole entry): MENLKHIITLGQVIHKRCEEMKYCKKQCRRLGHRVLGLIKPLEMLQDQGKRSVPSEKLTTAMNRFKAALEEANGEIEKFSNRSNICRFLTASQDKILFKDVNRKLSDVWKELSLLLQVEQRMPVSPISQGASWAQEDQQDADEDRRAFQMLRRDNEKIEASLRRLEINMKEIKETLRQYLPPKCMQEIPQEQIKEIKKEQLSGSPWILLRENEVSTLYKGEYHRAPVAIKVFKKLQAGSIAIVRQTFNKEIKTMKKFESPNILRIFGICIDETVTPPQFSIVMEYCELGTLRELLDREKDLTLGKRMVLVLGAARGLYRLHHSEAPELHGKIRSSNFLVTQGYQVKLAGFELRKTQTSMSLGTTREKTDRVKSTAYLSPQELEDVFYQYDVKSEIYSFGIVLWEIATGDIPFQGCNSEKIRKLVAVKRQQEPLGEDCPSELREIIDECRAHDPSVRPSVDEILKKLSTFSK
# [17] = target: Serine/threonine-protein kinase PAK 3 (Homo sapiens) (UniProt O75914); assay: Inhibition of PAK3 (unknown origin) at 1 uM by Ambit Kinomescan binding assay relative to control; values are per cent of control
# Serine/threonine-protein kinase PAK 3 (Homo sapiens), sequence (O75914 whole entry, looked up): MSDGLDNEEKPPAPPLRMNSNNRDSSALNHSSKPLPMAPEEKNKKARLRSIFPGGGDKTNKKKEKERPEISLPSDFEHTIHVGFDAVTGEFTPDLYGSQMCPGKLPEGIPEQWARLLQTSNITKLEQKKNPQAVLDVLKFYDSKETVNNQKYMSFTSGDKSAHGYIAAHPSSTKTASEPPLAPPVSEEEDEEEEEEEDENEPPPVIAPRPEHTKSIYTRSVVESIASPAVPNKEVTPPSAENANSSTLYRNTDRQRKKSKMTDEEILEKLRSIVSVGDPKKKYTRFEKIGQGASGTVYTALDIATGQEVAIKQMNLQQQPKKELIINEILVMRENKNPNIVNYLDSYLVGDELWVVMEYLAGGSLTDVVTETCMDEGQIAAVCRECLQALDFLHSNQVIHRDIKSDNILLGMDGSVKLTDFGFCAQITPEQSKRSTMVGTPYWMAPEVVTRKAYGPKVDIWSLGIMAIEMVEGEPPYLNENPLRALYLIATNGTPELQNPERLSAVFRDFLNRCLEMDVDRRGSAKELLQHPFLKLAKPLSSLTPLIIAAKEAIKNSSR
# Protein kinase C beta type (Homo sapiens), sequence (P05771 2-671 limits assumed): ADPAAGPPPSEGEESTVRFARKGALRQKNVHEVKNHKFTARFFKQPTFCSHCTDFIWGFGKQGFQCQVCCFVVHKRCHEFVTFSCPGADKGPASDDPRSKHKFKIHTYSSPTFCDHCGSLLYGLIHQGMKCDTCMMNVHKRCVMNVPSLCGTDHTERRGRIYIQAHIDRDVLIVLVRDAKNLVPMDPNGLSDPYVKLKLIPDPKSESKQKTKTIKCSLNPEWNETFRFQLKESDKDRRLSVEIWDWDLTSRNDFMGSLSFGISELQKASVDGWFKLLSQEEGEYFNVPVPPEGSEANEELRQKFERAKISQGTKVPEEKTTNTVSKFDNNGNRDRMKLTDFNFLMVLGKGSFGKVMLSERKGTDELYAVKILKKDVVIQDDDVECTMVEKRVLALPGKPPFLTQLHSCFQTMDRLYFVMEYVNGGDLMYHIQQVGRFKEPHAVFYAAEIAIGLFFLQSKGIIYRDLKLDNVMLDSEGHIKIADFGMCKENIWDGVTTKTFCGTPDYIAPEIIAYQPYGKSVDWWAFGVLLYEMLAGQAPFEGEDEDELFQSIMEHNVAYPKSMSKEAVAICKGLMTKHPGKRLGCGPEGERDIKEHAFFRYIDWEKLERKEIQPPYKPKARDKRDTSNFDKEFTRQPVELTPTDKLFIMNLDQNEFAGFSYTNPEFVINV
# Putative phosphatidylinositol 4-kinase alpha-like protein P2 (Homo sapiens), sequence (A4QPH2 whole entry): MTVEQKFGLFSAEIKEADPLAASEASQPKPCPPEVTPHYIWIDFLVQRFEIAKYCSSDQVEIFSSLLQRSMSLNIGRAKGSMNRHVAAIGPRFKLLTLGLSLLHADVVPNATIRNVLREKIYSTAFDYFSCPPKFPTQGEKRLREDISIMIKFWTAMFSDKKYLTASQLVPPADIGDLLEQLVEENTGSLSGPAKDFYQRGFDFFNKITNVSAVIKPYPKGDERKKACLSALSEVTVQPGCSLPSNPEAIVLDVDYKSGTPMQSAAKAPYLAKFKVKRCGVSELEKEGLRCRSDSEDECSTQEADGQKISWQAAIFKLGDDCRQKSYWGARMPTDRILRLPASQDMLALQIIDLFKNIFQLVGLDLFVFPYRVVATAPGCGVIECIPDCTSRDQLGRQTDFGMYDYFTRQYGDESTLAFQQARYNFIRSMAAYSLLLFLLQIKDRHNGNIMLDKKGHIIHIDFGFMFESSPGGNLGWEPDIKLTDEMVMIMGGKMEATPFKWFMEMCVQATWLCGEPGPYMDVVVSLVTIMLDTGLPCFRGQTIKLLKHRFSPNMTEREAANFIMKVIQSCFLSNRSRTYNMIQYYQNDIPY
# Serine/threonine-protein kinase PLK1 (Homo sapiens), sequence (P53350 whole entry): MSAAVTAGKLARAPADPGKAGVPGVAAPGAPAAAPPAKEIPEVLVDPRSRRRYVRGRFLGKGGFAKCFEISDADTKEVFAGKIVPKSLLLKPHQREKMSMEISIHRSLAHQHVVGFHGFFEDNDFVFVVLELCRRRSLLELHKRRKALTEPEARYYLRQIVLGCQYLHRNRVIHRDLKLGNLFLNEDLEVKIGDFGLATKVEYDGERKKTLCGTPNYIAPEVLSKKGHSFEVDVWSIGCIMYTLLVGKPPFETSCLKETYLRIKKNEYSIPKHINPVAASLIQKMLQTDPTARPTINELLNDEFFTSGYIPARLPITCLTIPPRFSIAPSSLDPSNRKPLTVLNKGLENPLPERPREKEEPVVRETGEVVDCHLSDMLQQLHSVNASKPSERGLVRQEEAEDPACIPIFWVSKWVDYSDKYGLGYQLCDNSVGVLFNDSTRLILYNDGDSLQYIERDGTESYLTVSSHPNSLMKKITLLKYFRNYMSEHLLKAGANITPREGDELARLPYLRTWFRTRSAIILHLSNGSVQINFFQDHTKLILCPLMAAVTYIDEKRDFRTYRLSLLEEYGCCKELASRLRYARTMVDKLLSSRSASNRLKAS
# Fibroblast growth factor receptor 3 (Homo sapiens), sequence (P22607 23-806 limits assumed): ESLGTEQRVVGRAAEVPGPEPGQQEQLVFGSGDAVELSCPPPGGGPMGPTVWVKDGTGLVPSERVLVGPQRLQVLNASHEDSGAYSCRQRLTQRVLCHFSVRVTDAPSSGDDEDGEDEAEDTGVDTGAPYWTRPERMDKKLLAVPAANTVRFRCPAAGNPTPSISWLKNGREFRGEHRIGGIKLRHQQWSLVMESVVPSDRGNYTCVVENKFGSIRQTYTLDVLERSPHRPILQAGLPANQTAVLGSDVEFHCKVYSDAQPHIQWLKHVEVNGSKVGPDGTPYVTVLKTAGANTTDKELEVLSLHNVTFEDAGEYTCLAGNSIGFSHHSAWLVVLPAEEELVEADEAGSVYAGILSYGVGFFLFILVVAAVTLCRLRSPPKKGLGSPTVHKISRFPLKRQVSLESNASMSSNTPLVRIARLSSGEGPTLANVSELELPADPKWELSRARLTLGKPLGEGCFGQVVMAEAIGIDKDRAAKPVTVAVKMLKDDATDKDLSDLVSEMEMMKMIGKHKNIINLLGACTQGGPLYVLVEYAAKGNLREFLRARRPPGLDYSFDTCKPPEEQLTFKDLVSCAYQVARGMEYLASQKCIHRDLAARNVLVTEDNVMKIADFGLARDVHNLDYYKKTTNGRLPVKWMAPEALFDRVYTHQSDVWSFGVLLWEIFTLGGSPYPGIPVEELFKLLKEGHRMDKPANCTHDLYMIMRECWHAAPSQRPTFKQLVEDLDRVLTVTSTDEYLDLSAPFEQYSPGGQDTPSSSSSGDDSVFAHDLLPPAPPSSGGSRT
# RAC-gamma serine/threonine-protein kinase (Homo sapiens), sequence (Q9Y243 whole entry): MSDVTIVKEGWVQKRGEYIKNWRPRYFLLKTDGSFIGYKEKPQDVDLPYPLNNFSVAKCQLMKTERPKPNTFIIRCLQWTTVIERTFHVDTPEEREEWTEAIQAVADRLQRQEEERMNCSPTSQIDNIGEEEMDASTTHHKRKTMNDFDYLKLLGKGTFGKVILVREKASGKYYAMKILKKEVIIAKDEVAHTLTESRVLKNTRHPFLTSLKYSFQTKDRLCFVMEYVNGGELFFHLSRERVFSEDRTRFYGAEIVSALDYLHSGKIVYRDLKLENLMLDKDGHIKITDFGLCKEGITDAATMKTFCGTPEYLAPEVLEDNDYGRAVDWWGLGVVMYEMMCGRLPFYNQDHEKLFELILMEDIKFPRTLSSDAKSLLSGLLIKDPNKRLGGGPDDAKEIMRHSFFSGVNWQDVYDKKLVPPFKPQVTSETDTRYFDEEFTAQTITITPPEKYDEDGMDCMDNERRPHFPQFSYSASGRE
# Ephrin type-A receptor 3 (Homo sapiens), sequence (P29320 whole entry): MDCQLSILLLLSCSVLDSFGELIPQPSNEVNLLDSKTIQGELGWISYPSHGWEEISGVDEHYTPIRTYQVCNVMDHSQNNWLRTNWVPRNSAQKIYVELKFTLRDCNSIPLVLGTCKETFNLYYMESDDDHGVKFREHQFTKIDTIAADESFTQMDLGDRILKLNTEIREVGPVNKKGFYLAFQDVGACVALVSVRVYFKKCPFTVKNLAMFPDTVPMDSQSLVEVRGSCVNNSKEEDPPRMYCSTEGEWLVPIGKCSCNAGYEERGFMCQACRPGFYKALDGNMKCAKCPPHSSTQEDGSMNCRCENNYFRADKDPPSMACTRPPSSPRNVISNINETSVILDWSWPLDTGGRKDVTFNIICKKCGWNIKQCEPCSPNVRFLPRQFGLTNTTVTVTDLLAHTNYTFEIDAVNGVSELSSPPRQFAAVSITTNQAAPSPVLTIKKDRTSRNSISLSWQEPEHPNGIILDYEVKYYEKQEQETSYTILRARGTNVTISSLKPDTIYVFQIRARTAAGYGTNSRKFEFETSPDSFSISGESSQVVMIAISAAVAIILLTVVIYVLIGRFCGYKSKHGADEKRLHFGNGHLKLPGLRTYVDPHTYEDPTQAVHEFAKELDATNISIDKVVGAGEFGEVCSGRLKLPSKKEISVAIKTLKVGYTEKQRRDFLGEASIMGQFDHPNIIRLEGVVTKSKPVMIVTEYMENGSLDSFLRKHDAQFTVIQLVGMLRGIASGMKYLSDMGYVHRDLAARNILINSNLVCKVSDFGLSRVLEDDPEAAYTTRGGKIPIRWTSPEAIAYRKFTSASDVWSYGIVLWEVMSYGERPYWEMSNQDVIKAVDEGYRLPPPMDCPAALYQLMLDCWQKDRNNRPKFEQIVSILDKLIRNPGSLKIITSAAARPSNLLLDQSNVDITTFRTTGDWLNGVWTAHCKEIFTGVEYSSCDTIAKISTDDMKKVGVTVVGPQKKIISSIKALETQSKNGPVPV
# Death-associated protein kinase 2 (Homo sapiens), sequence (Q9UIK4 whole entry, looked up, the tested form may be a part): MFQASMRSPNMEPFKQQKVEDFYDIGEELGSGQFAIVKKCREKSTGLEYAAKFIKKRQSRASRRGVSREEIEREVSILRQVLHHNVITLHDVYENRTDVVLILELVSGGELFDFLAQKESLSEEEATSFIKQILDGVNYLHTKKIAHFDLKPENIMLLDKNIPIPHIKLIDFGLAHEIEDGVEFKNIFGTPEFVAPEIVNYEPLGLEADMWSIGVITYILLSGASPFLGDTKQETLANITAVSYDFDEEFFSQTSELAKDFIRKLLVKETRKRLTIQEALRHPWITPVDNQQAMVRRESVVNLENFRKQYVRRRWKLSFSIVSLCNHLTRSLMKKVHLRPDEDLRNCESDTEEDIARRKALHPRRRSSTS
compound,measurement,setting,value
CNc1cc(Oc2cc(C(=O)Nc3cc(N4CCN(C)CC4)cc(C(F)(F)F)c3)ccc2C)ncn1,inhibition,[1],2%
same,inhibition,[2],64.8%
same,inhibition,[3],1.8%
same,inhibition,[4],15.9%
CCN1CCN(Cc2ccc(NC(=O)c3ccc(C)c(Oc4ccnc5[nH]ccc45)c3)cc2C(F)(F)F)CC1,inhibition,[5],8.8%
same,percent of control,[6],3.9%
same,inhibition,[7],inactive
same,inhibition,[8],inactive
same,inhibition at 1 µM,[9],1.5%
same,inhibition,[10],3.4%
same,inhibition,[11],-4%
CCN1CCN(Cc2ccc(NC(=O)c3ccc(C)c(/C=C/c4cnc5[nH]ccc5c4OC)c3)cc2C(F)(F)F)CC1,residual activity,[12],13%
same,inhibition,[13],0%
same,inhibition,[14],100%
same,inhibition,[15],6.8%
same,inhibition,[16],3.2%
same,residual activity,[17],66%
